Data: patent publication US20250145609A1, “3-SUBSTITUTED PYRIDAZINE COMPOUNDS AS SMARCA2 AND/OR SMARCA4 DEGRADERS” (Aurigene Oncology Limited, priority 2022, published 2025)

Legend:
Format in all cases: cell-based
VCaP cells = assay: Anti proliferative activity in VCaP cell line by CellTiter Glo assay; details: Homo sapiens, VCaP, 192 h, 8 days incubation, CellTiter Glo luminescence
Experimental: Example-P1: Determination of Anti Proliferative Activity of Compounds in Cell Lines VCaP by Cell Titer Glo©(Promega) Assay
VCaP (ATCC CRL-2876) cells were seeded in 96 well plate flat black clear bottom plates (Corning, Cat. No 3904) using complete DMEM Medium. Next day, compounds listed in the present invention were added to cells from 10 mM stocks made in DMSO (Sigma Cat no. D2650). Each concentration of compound was tested in triplicate with DMSO concentration at a final percentage not exceeding 0.3 in the cells. After the incubation of VCaP cells with compound for 8 days assay was terminated using 50 μl of CellTiter Glo© reagent (Promega, Cat. no G7572). CellTiter-Glo® Luminescent reagent determines the number of viable cells based on quantitation of ATP present which is an indicator of cell number and metabolic activity. Luminescence readings were taken in Victor-3 instrument. Percent inhibition of proliferation was calculated using formula, % inhibition=100−(luminescence value of test/luminescence value of DMSO control)*100. DMSO control (0%)=Cells in complete media with DMSO; blank=Media alone containing DMSO. EC50 was calculated using graph pad prism software.
Herein the group “A” refers to EC50 values lower than l0 nM, group “B” refers to EC50 values between l0 nM-100 nM (both inclusive) and group “C” refers to EC50 values greater than 100 nM.

SMARCA2 = target: T1, SMARCA2 (Homo sapiens, UniProt P51531); assay: SMARCA2 degradation in VCaP cells by Western blot; details: at 100 nM, 16 hours
T1 construct: endogenous in cells; host or cells: VCaP (ATCC CRL-2876)
Experimental: (§1) Example-P2: Determination of SMARCA2 and SMARCA4 Degradation in VCaP Cells by Western Blot
(§2) VCaP (ATCC CRL-2876) was plated in 6 well plates using complete Dulbecco's Modified Eagle's Medium. On the third day, compounds of present invention were added to cells from 10 mM stocks made in DMSO (Sigma Cat no. D2650). Each compound was tested at 100 nM concentration with DMSO not exceeding final percentage of 0.3 in the cells. Cells were incubated with the compound for 16 hours followed by harvesting with 1×RIPA lysis buffer (Thermo Fischer, catalogue number #89900) containing protease inhibitor cocktail (Sigma catalogue number #P-8340). Equal amount of protein was loaded on SDS PAGE gel for electrophoresis. Western blot was carried out for detection of either SMARCA2 (Cell signalling technologies, catalogue number #11966) or SMARCA4 antibody (Cell signalling technologies, catalogue number #52251). Beta-Tubulin antibody (Cell signalling technologies, catalogue number #86298) was used as loading control. Percentage of SMARCA2 or SMARCA4 degradation was calculated by using formula: […]

SMARCA4 = target: T2, SMARCA4 (Homo sapiens, UniProt P51532); assay: SMARCA4 degradation in VCaP cells by Western blot; details: at 100 nM; for Percent SMARCA4 degradation at 0.1 µM: VCaP, 16 h
T2 construct: endogenous in cells; host or cells: VCaP (ATCC CRL-2876)
Experimental: as §1, §2

T2 sequence (P51532 whole entry): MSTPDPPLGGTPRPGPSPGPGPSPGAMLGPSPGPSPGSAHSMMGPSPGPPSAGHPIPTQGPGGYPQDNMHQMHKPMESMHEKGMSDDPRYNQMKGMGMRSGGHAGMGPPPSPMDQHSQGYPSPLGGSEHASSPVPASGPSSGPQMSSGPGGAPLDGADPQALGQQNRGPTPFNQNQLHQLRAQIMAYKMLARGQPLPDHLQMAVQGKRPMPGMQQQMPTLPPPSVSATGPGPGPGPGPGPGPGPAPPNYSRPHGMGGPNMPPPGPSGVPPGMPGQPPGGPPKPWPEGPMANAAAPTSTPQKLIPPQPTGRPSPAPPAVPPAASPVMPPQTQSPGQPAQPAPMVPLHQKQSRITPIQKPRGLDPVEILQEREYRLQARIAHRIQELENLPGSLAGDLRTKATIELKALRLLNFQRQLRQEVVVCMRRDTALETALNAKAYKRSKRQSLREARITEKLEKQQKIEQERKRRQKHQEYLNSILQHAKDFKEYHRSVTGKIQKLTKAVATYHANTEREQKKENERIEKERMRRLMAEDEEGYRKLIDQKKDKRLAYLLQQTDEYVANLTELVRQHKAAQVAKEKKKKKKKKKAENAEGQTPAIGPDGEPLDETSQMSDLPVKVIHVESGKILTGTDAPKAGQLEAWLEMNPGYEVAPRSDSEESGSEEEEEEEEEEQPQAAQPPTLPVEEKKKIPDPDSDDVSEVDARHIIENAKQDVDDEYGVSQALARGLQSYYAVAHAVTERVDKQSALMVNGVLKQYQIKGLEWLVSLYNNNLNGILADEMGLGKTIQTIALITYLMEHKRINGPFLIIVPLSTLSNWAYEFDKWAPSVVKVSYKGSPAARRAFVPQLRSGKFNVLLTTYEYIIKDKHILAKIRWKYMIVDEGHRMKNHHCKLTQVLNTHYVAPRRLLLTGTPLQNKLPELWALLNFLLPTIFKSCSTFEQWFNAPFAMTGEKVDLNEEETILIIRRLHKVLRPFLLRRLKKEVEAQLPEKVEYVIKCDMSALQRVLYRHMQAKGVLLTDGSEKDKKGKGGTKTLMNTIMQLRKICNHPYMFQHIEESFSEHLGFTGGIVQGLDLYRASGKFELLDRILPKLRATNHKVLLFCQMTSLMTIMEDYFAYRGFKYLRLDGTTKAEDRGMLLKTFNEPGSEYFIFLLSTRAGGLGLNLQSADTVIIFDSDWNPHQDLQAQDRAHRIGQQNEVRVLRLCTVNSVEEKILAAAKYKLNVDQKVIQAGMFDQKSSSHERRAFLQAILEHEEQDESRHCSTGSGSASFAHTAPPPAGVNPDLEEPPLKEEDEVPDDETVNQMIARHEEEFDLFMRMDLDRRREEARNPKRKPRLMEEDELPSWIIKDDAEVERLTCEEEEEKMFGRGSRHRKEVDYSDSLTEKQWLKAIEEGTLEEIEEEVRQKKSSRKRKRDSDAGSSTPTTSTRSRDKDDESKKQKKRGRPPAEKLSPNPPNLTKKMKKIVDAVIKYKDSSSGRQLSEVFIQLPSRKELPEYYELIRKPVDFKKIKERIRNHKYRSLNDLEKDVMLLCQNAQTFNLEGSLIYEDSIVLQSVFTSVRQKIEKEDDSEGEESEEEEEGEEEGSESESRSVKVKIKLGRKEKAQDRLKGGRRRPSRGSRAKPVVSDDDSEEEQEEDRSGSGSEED
T1 sequence (P51531 whole entry): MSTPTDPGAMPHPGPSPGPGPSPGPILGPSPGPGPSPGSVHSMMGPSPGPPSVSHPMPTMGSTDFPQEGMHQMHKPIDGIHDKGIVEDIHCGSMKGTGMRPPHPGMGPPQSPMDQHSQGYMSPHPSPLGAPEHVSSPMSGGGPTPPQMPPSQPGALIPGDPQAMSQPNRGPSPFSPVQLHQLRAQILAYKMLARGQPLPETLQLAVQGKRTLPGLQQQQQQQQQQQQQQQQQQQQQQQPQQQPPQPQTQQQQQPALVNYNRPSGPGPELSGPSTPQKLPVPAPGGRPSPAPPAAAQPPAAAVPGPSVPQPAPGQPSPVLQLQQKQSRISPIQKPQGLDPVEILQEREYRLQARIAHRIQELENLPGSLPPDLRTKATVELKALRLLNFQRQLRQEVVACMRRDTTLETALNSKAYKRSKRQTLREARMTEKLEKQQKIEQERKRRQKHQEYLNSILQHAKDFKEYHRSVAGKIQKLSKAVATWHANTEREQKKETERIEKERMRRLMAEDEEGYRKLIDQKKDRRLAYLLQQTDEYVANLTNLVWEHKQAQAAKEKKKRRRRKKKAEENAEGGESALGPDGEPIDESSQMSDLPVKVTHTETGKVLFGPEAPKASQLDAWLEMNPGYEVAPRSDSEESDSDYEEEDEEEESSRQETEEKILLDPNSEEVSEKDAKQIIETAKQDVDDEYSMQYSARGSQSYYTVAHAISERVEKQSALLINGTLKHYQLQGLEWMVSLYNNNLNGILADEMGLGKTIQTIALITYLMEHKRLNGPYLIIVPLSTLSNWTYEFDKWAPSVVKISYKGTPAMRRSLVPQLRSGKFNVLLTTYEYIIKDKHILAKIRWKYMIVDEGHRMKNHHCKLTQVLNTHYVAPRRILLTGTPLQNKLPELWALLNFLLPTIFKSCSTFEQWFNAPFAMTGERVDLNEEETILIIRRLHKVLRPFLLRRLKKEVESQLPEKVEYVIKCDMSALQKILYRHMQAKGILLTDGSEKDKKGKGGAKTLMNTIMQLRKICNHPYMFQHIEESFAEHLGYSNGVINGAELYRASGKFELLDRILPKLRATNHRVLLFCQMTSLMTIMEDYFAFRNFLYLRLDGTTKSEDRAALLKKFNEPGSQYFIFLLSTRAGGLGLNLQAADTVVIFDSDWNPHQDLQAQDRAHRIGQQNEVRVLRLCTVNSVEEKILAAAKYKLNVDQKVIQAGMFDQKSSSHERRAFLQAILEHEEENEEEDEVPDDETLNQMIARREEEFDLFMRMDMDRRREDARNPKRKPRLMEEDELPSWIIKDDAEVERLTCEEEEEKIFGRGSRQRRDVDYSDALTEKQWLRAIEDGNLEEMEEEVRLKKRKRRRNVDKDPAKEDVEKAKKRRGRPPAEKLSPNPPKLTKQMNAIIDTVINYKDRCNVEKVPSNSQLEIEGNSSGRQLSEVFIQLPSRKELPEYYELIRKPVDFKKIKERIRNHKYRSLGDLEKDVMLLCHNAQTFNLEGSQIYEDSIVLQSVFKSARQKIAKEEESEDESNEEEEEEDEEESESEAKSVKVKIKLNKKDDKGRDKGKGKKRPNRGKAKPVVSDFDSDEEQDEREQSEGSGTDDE

| SMILES | EC50 (VCaP cells) [nM] | Percent degradation SMARCA2 (SMARCA2) [%] | Percent SMARCA4 degradation at 0.1 µM (SMARCA4) [%] | Percent degradation SMARCA4 (SMARCA4; 16 hours) [%] |
| --- | --- | --- | --- | --- |
| Cc1ncsc1-c1ccc([C@H](C)NC(=O)[C@@H]2C[C@@H](O)CN2C(=O)[C@@H](NC(=O)CN2CCC(c3ccc(-c4cc(-c5ccccc5O)nnc4N)cc3)CC2C)C(C)(C)C)cc1 (single isomer, unassigned) [Compound 36] | < 10 | 99 | 86 | – |
| Cc1ncsc1-c1ccc([C@H](C)NC(=O)[C@@H]2C[C@@H](O)CN2C(=O)[C@@H](c2cc(-c3ccc(-c4cc(-c5ccccc5O)nnc4N)cc3)no2)C(C)C)cc1 [Compound 6, (2S,4R)-1-((R)-2-(3-(4-(3-amino-6-(2-hydroxyphenyl)pyridazin-4-yl)phenyl)isoxazol-5-yl)-3-methylbutanoyl)-4-hydroxy-N—((S)-1-(4-(4-methylthiazol-5-yl)phenyl)ethyl)pyrrolidine-2-carboxamide] | 10 to 100 | 100 | 85 | – |
| Cc1ncsc1-c1ccc([C@H](C)NC(=O)[C@@H]2C[C@@H](O)CN2C(=O)[C@@H](NC(=O)CN2CCN(c3ccc(-c4cc(-c5ccccc5O)nnc4N)cc3)CC2)C(C)(C)C)cc1 [Compound 12, (2S,4R)-1-((S)-2-(2-(4-(4-(3-amino-6-(2-hydroxyphenyl)pyridazin-4-yl)phenyl)piperazin-1-yl)acetamido)-3,3-dimethylbutanoyl)-4-hydroxy-N—((S)-1-(4-(4-methylthiazol-5-yl)phenyl)ethyl)pyrrolidine-2-carboxamide] | < 10 | 98 | 54 | – |
| Cc1ncsc1-c1ccc([C@H](C)NC(=O)[C@@H]2C[C@@H](O)CN2C(=O)C(c2cc(OCCOc3ccc(-c4cc(-c5ccccc5O)nnc4N)cc3)no2)C(C)C)cc1 (stereo partly drawn) [Compound 24, (2S,4R)-1-(2-(3-(2-(4-(3-amino-6-(2-hydroxyphenyl)pyridazin-4-yl)phenoxy)ethoxy)isoxazol-5-yl)-3-methylbutanoyl)-4-hydroxy-N—((S)-1-(4-(4-methylthiazol-5-yl)phenyl)ethyl)pyrrolidine-2-carboxamide] | < 10 | 95 | 96 | – |
| Cc1ncsc1-c1ccc([C@H](C)NC(=O)[C@@H]2C[C@@H](O)CN2C(=O)[C@@H](NC(=O)CN2CCN(c3ccc(-c4cc(-c5ccccc5O)nnc4N)c(F)c3)CC2)C(C)(C)C)cc1 [Compound 28, (2S,4R)-1-((S)-2-(2-(4-(4-(3-amino-6-(2-hydroxyphenyl)pyridazin-4-yl)-3-fluorophenyl)piperazin-1-yl)acetamido)-3,3-dimethylbutanoyl)-4-hydroxy-N—((S)-1-(4-(4-methylthiazol-5-yl)phenyl)ethyl)pyrrolidine-2-carboxamide] | 10 to 100 | 96 | 67 | – |
| Cc1ncsc1-c1ccc([C@H](C)NC(=O)[C@@H]2C[C@@H](O)CN2C(=O)[C@@H](NC(=O)CN2CCC(c3ccc(-c4cc(-c5ccccc5O)nnc4N)cc3)CC2)C(C)(C)C)cc1 [Compound 29, (2S,4R)-1-((S)-2-(2-(4-(4-(3-amino-6-(2-hydroxyphenyl)pyridazin-4-yl)phenyl)piperidin-1-yl)acetamido)-3,3-dimethylbutanoyl)-4-hydroxy-N—((S)-1-(4-(4-methylthiazol-5-yl)phenyl)ethyl)pyrrolidine-2-carboxamide] | < 10 | 95 | 95 | – |

Results, then the molecule that gave them:

| EC50 (VCaP cells) [nM] | Percent degradation SMARCA2 (SMARCA2) [%] | Percent SMARCA4 degradation at 0.1 µM (SMARCA4) [%] | Percent degradation SMARCA4 (SMARCA4; 16 hours) [%] | SMILES |
| --- | --- | --- | --- | --- |
| < 10 | 99 | – | 94 | Cc1ncsc1-c1ccc([C@H](C)NC(=O)[C@@H]2C[C@@H](O)CN2C(=O)[C@@H](NC(=O)C2CCC(c3ccc(-c4cc(-c5ccccc5O)nnc4N)cc3)CC2)C(C)(C)C)cc1 (single isomer, unassigned) [Compound 42] |
| < 10 | 98 | 89 | – | Cc1ncsc1-c1ccc([C@H](C)NC(=O)[C@@H]2C[C@@H](O)CN2C(=O)[C@@H](NC(=O)CC2CCC(c3ccc(-c4cc(-c5ccccc5O)nnc4N)cc3)CC2)C(C)(C)C)cc1 (single isomer, unassigned) [Compound 44] |
| 10 to 100 | 98 | 51 | – | Cc1ncsc1-c1ccc([C@H](C)NC(=O)[C@@H]2C[C@@H](O)CN2C(=O)C(C(C)C)n2cc(-c3ccc(-c4cc(-c5ccccc5O)nnc4N)cc3)cn2)cc1 (stereo partly drawn) [Compound 11, (2S,4R)-1-(2-(4-(4-(3-amino-6-(2-hydroxyphenyl)pyridazin-4-yl)phenyl)-1H-pyrazol-1-yl)-3-methylbutanoyl)-4-hydroxy-N—((S)-1-(4-(4-methylthiazol-5-yl)phenyl)ethyl)pyrrolidine-2-carboxamide] |
| < 10 | 96 | 96 | – | Cc1ncsc1-c1ccc([C@H](C)NC(=O)[C@@H]2C[C@@H](O)CN2C(=O)[C@@H](NC(=O)CCCC#Cc2ccc(-c3cc(-c4ccccc4O)nnc3N)cc2)C(C)(C)C)cc1 [Compound 19, (2S,4R)-1-((S)-2-(6-(4-(3-amino-6-(2-hydroxyphenyl)pyridazin-4-yl)phenyl)hex-5-ynamido)-3,3-dimethylbutanoyl)-4-hydroxy-N—((S)-1-(4-(4-methylthiazol-5-yl)phenyl)ethyl)pyrrolidine-2-carboxamide] |
| > 100 | 97 | 71 | – | Cc1ncsc1-c1ccc([C@H](C)NC(=O)[C@@H]2C[C@@H](O)CN2C(=O)[C@@H](NC(=O)CC#Cc2ccc(-c3cc(-c4ccccc4O)nnc3N)cc2)C(C)(C)C)cc1 [Compound 21, (2S,4R)-1-((S)-2-(4-(4-(3-amino-6-(2-hydroxyphenyl)pyridazin-4-yl)phenyl)but-3-ynamido)-3,3-dimethylbutanoyl)-4-hydroxy-N-((S)-1-(4-(4-methylthiazol-5-yl)phenyl)ethyl)pyrrolidine-2-carboxamide] |
| < 10 | 97 | 92 | – | Cc1ncsc1-c1ccc([C@H](C)NC(=O)[C@@H]2C[C@@H](O)CN2C(=O)[C@@H](NC(=O)CN2CCN(c3ccc(-c4cc(-c5ccccc5O)nnc4N)cn3)CC2)C(C)(C)C)cc1 [Compound 25, (2S,4R)-1-((S)-2-(2-(4-(5-(3-amino-6-(2-hydroxyphenyl)pyridazin-4-yl)pyridin-2-yl)piperazin-1-yl)acetamido)-3,3-dimethylbutanoyl)-4-hydroxy-N—((S)-1-(4-(4-methylthiazol-5-yl)phenyl)ethyl)pyrrolidine-2-carboxamide] |
| 10 to 100 | 92 | 63 | – | Cc1ncsc1-c1ccc(CNC(=O)[C@@H]2C[C@@H](O)CN2C(=O)[C@@H](NC(=O)CN2CCC(c3ccc(-c4cc(-c5ccccc5O)nnc4N)cc3)CC2)C(C)(C)C)cc1 [Compound 30, (2S,4R)-1-((S)-2-(2-(4-(4-(3-amino-6-(2-hydroxyphenyl)pyridazin-4-yl)phenyl)piperidin-1-yl)acetamido)-3,3-dimethylbutanoyl)-4-hydroxy-N-(4-(4-methylthiazol-5-yl)benzyl)pyrrolidine-2-carboxamide] |
